# Data published in patent US20180147189A1, “ADMINISTRATION REGIMEN FOR THERAPEUTIC AGENTS FOR ATAXIA IN SPINOCEREBELLAR DEGENERATION” (KISSEI PHARMACEUTICAL CO., LTD., priority 2015, published 2018).
# Tests used:
# [1] = Repeated dose study in healthy adult males; type: in vivo, human; settings: for transition of FT3 value (serum concentration, mean) / transition of FT4 values (serum concentration, mean): oral, 9 days
# Experimental: To 50 healthy adult males (8 individuals per group and 10 on placebo), rovatirelin trihydrate (0.25, 0.5 or 1.0 mg) or placebo was orally administered once daily or rovatirelin trihydrate (0.25 or 0.5 mg) or placebo was orally administered twice daily after breakfast and after dinner, for 9 consecutive days.
# Serum concentrations (mean) of FT3, FT4, TSH, and prolactin (PRL), and adverse events and the like were evaluated.
# [2] = test system: pure cerebellar SCD patients; test: Long-term extension study of pure cerebellar SCD patients; type: in vivo, human; settings: 2.4 mg once daily, at 52 weeks
# Experimental: For patients who completed the phase III study (Example 4), rovatirelin trihydrate was administered at 1.6 or 2.4 mg once daily for 52 weeks (open-label parallel-group comparative study).
# The same items as those listed in Example 4 were used as efficacy and safety endpoints, and deterioration rates (i.e., the number of deteriorated patients/total number of patients) in the SARA total score and SARA scores for each items were calculated in a similar manner.
# [3] = test system: SCD patients; test: Study of switch from conventional drugs to rovatirelin in SCD patients; type: in vivo, human; settings: switch group from taltirelin, 24 weeks, P<0.01
# Experimental: To the patients were orally administered rovatirelin trihydrate at 1.6 or 2.4 mg once daily after breakfast for 24 weeks (randomized, open-label parallel-group comparative study).
# A 4-week pre-observation period was set prior to the start of the treatment period. For patients who received a conventional SCD agent taltirelin or protirelin agent (TRH agent) before the pre-observation period, the medication was continued until the end of the pre-observation period without changing its dosage and administration.
# The same items as those listed in Example 4 were used as efficacy and safety endpoints.
# [4] = test system: SCD patients; test: Clinical trial of SCD patients (Phase II study); type: in vivo, human; settings: for amount of change in the SARA total score: 24 weeks, pure cerebellar SCD patients, mean
# Experimental: Rovatirelin trihydrate (0.4, 0.8, 1.6 or 3.2 mg) or placebo was orally administered to 225 SCD patients once daily after breakfast for 24 weeks (double-blind).
# The efficacy endpoint was the amount of change in the SARA total score calculated by, as an example, the SARA total score at the final assessment in the treatment period (the final observed value in the treatment period) minus that at the end of the pre-observation period as an example. The safety endpoints were, as an example, the occurrence of adverse events and side effects, physiological examinations (e.g., blood pressure and pulses), and endocrinologic examinations (e.g., FT3 and FT4).
# It is noted that the SARA total score was calculated by a sum of the SARA scores for each item ((i.e., gait (score 0-8), stance (score 0-6), sitting (score 0-4), speech disturbance (score 0-6), finger chase (score 0-4), nose-finger test (score 0-4), fast alternating hand movements (score 0-4), and heel-shin slide (score 0-4) (the score 0 is normal for all items)).
# [5] = test system: patients with pure cerebellar SCD; test: Clinical trial of pure cerebellar SCD patients (Phase III study); type: in vivo, human
# Experimental: Rovatirelin trihydrate at a dose of 1.6 or 2.4 mg or placebo was orally administered to patients with pure cerebellar SCD (SCA6, SCA31 or cortical cerebellar atrophy (CCA)) with ataxia once daily after breakfast for 28 weeks (double-blind; 124 patients in the 1.6 mg group, 122 patients in the 2.4 mg group, and 123 patients in the placebo group).
# To appropriately assess the efficacy of rovatirelin trihydrate on ataxia, this study was performed on pure cerebellar SCD patients with a SARA gait score between 2 and 6 and a SARA total score of ≥6.
# The same items as those listed in Example 3 were used as efficacy and safety endpoints. SCD is a disease that automatically becomes worse; therefore it is important in the treatment to retard the deterioration. Accordingly, patients with a […] in their SARA score compared with the time in week 0 were defined as deteriorated patients, and deterioration rates (i.e., the number of deteriorated patients/total number of patients) in the SARA total score and SARA scores for each item were calculated.
# [6] = test system: ataxia in SCD; settings: NPL 3, cited from earlier work
# [7] = Pharmacokinetic study in humans, single dose on an empty stomach; type: in vivo, human; settings: single dose 0.1-10 mg, healthy adult males
# Experimental: Rovatirelin trihydrate (0.1, 0.3, 1, 2.5, 5 or 10 mg) or placebo was administered to 48 healthy adult males (6 individuals per group and 12 on placebo) as a single dose on an empty stomach. Analysis of the pharmacokinetics of intact rovatirelin under this condition indicated linearity of Cmax (maximum plasma concentration), AUC0-∞ (area under the plasma concentration curve vs. time curve from time 0 to infinity), and Ae0-48 (cumulative amount excreted into urine from time 0-48 hours) of rovatirelin in a dosage range from 0.1-10 mg.
# [8] = test system: animal models; settings: PTL 2; cited from earlier work
# [9] = PTL 2; cited from earlier work
# [10] = 0.5 mg once daily (0.5 mg/qd) compared with 0.25 mg twice daily
# [11] = 1 mg once daily (1 mg/qd) compared with 0.5 mg twice daily
# [12] = 2.4 mg group, elderly aged ≥65 years
compound,measurement,setting,value
C[C@@H]1OC(=O)N[C@@H]1C(=O)N[C@@H](Cc1cscn1)C(=O)N1CCC[C@H]1C [rovatirelin trihydrate],"transition of FT3 value (serum concentration, mean)",[1]; [10],proceeded at lower levels as a whole
same,"transition of FT4 values (serum concentration, mean)",[1]; [10],comparable for both groups or the transition for the 0.5 mg/qd group proceeded at slightly lower levels
same,FT4 concentrations versus reference limit,"[1]; 0.5 mg twice daily, Day 5 and Day 9, reference limits 0.9 and 1.7 ng/dL",above the reference limit
same,"transition of FT3 value (serum concentration, mean)",[1]; [11],proceeded at lower levels as a whole
same,"transition of FT4 values (serum concentration, mean)",[1]; [11],proceeded at lower levels as a whole
same,deterioration rate for items (gait),[2],9.9%
same,deterioration rate of the SARA total score,[2],21.0%
same,amount of change in the SARA total score,[2]; 81 patients who completed,−1.41
same,amount of change in the SARA total score at an endpoint,[3]; 1.6 mg once daily,−1.34
same,amount of change in the SARA total score at an endpoint,[3]; 2.4 mg once daily,−1.35
same,amount of change in the SARA total score,[4]; 0.4 mg once daily,−1.09 score
same,amount of change in the SARA total score,[4]; 0.8 mg once daily,−1.27 score
same,discontinuation rate,[4]; 1.6 mg group (placebo 15.6%),17.8%
same,amount of change in the SARA total score,[4]; 1.6 mg once daily,−1.58 score
same,discontinuation rate,[4]; 3.2 mg group (placebo 15.6%),28.9%
same,FT3 and FT4 concentrations versus upper reference limits,[4]; 3.2 mg once daily,slightly above the upper reference limits
same,amount of change in the SARA total score,[4]; 3.2 mg once daily,−1.65 score
same,side effect rate compared with placebo (Fisher's exact test),"[4]; 3.2 mg once daily, P=0.002",significantly differed
same,FT3 and FT4 concentrations versus normal range,"[5]; 1.6 mg and 2.4 mg groups, 4 weeks after the start of administration, no further increase subsequently",reached the upper limit of the normal range
same,SARA gait and stance scores compared with the placebo group,[5]; 1.6 mg group,no improvement was observed
same,SARA total score compared with the placebo group,[5]; 1.6 mg group,no improvement was observed
same,discontinuation rate,[5]; 1.6 mg group (placebo 4.9%),16.0%
same,amount of change in the SARA total score,"[5]; 1.6 mg once daily, 28 weeks, compared with pre-dose score",−0.75
same,discontinuation rate,[5]; 2.4 mg group (placebo 4.9%),19.8%
same,deterioration rate of the SARA total score,[5]; 2.4 mg group (placebo 30.9%),23.8%
same,amount of change in the SARA gait score,[5]; [12],−0.19
same,amount of change in the SARA stance score,[5]; [12],−0.54
same,amount of change in the SARA total score,[5]; [12],−1.39
same,amount of change in the SARA total score,"[5]; 2.4 mg once daily, 28 weeks, compared with pre-dose score",−1.22
CN1C(=O)C[C@@H](C(=O)N[C@@H](Cc2cnc[nH]2)C(=O)N2CCC[C@H]2C(N)=O)NC1=O.O.O.O.O [Taltirelin hydrate],total improvement level (subjective assessment of a physician) versus placebo,"[6]; after 28 weeks, ataxia in SCD",significant difference
same,individual symptoms (symptom of ataxia),[6]; phase III double-blind comparative study,no significant improvement was observed
"C[C@@H]1OC(=O)N[C@@H]1C(=O)N[C@@H](Cc1cscn1)C(=O)N1CCC[C@H]1C [rovatirelin, (4S,5S)-5-methyl-N-{(2S)-1-[(2R)-2-methylpyrrolidin-1-yl]-1-oxo-3-(1,3-thiazol-4-yl)propan-2-yl}-2-oxo-1,3-oxazolidine-4-carboxamide]",dose proportionality of AUC0-∞,[7],linearity
same,dose proportionality of Ae0-48 (cumulative amount excreted into urine 0-48 hours),[7],linearity
same,dose proportionality of Cmax (maximum plasma concentration),[7],linearity
same,effects in improving ataxia relative to taltirelin,[8],at least 30 times
same,bioavailability (BA),[9],high
